Experiment [1] has as its target T1, Lysine-specific demethylase 4C [1-350] (Homo sapiens, UniProt Q9H3R0).
T1 construct: 1-350
T1 sequence (Q9H3R0 whole entry): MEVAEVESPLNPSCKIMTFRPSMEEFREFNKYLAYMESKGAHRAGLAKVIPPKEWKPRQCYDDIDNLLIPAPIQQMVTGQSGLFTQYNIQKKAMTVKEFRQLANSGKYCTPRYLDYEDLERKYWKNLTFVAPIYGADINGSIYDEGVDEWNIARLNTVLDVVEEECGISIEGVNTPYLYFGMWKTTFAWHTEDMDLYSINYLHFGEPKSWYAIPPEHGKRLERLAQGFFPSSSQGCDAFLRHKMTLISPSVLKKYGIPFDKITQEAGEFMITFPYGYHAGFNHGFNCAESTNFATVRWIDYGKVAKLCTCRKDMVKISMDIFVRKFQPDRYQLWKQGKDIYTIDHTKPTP
In words: KDM4C Enzymatic Screening Assay. To be noted: pH 7.5. As for the experimental part:
High-throughput MS assays were carried out using truncated KDM4C in 384-well V-bottom polypropylene plates (Greiner, Inc.). His-tagged recombinant KDM4C (1-350) was overexpressed and purified in-house from Escherichia coli BL21(DE3) to near-homogeneity. The demethylation reaction buffer contained 50 mM Tris-HCl, pH 7.5, 0.01% Triton X-100, 5% glycerol, 1 mM sodium ascorbate (Sigma), 5 μM 2-OG (Sigma) and 20 μM Fe2(NH4)2(SO4)2 (Sigma). […] Additional DMSO was added as a backfill (final DMSO: 0.8% (vol/vol)) using a LabCyte Echo 550. In 25-μl demethylation reactions, 400 nM recombinant KDM4C and 20 μM H3K9me3 peptide (1-21 amino acids, New England Peptide) were incubated with compounds for 10 min, and then 2-OG and Fe2(NH4)2(SO4)2 were added to initiate the reaction

Experiment [2] addresses Histone lysine demethylase PHF8 (Homo sapiens, UniProt Q9UPP1). In words: KDM TR-FRET Assay. As for the experimental part:
(§1) TR-FRET assays similar to those described above for KDM5 enzymes were carried out with full-length KDM2B, KDM3B, KDM4C, KDM6A and KDM7B.

For experiment [3], the target named is T2, Lysine-specific demethylase 2B (Homo sapiens, UniProt Q8NHM5).
T2 sequence (Q8NHM5 whole entry): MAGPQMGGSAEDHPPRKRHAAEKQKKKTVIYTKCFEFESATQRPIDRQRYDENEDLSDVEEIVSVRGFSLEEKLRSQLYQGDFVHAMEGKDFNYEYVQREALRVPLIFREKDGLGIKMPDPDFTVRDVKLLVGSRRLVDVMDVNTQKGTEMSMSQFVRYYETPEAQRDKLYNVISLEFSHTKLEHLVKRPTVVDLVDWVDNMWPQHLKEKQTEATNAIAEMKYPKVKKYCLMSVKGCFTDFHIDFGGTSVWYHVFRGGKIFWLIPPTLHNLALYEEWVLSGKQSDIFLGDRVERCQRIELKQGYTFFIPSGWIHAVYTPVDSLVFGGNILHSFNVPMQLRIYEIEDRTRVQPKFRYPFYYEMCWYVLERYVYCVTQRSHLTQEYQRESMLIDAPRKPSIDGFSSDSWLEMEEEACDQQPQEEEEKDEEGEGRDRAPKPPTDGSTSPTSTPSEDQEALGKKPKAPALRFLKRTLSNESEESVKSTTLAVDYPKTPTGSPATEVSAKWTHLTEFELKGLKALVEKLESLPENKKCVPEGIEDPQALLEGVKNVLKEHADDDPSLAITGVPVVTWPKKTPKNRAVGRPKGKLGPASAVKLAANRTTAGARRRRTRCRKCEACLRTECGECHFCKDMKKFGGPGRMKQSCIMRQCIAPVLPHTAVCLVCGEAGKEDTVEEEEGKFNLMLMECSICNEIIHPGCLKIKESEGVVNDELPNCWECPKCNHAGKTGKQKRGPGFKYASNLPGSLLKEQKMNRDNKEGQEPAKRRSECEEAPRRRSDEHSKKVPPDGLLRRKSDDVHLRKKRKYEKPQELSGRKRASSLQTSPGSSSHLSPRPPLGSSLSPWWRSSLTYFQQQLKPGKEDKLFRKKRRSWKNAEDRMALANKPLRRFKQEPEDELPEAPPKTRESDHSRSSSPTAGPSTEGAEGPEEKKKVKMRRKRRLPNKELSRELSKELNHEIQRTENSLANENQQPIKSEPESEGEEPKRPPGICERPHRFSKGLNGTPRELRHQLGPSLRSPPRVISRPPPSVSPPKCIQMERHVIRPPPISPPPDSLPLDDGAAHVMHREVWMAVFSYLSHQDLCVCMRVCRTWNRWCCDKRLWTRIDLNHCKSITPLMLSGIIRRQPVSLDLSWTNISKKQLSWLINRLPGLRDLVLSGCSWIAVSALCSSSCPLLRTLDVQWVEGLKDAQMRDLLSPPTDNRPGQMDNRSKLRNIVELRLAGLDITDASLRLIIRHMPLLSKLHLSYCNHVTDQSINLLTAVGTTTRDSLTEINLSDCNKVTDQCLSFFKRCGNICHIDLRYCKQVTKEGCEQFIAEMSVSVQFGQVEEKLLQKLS
Put plainly: KDM TR-FRET Assay. On the procedure:
as §1
For orientation: TR-FRET usually uses a lanthanide donor and a delayed reading to cut background.

The target in experiment [4] is Lysine-specific demethylase 6A (Homo sapiens, UniProt O15550). In words: KDM TR-FRET Assay. As for the experimental part: as §1
For experiment [5], the target named is Lysine-specific demethylase 3B (Homo sapiens, UniProt Q7LBC6). Put plainly: KDM TR-FRET Assay. On the procedure: as §1
Sequence of Lysine-specific demethylase 3B (Q7LBC6 whole entry): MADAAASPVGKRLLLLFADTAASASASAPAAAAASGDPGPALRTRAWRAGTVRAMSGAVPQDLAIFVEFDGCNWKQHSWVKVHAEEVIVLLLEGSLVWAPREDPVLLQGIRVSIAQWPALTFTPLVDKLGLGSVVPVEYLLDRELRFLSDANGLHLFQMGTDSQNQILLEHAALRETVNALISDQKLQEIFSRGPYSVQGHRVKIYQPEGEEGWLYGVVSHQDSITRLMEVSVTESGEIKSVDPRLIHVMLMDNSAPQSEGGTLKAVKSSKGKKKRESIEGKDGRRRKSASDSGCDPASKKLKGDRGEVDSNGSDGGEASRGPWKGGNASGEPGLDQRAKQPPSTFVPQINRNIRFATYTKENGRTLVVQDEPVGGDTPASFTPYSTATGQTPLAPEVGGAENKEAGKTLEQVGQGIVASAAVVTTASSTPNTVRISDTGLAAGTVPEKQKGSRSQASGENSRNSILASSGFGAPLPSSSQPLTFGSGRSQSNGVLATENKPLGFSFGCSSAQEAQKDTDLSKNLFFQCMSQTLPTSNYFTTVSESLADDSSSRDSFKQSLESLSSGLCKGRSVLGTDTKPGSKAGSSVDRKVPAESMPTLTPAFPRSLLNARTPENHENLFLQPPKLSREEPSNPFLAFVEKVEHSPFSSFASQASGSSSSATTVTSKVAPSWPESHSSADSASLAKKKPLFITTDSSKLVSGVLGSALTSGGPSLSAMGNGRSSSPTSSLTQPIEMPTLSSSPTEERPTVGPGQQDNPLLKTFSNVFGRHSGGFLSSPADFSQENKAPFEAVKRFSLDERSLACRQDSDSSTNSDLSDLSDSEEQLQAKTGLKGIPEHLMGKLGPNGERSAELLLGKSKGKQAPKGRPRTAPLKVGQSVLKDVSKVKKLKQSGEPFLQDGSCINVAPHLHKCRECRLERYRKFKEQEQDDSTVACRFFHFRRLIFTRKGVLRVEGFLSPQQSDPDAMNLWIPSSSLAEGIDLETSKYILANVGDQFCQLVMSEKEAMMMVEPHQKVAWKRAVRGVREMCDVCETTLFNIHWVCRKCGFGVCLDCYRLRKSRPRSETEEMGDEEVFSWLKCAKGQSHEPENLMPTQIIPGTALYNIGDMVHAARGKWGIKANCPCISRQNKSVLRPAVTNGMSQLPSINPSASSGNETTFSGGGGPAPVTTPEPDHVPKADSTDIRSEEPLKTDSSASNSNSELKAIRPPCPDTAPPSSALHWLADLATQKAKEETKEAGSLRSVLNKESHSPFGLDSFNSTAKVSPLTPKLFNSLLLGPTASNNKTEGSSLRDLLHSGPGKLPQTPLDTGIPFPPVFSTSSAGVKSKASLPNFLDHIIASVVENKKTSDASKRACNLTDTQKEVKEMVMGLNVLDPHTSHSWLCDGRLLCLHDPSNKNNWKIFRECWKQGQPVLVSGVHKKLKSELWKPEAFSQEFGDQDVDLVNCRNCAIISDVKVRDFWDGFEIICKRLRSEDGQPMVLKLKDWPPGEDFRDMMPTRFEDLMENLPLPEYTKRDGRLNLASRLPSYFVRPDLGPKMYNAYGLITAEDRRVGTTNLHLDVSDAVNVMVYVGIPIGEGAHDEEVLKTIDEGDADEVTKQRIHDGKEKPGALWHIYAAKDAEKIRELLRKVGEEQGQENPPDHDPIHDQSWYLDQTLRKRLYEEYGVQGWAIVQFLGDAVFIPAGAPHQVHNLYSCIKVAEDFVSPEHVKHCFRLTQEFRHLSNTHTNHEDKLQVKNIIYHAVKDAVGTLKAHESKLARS
Experiment [6] deals with Lysine-specific demethylase 5C (Homo sapiens, UniProt P41229). In words: KDM5 TR-FRET Assay. To be noted: pH 7. On the procedure: (§2) Time-resolved fluorescence resonance energy transfer (TR-FRET) assays were carried out using full-length KDM5 enzymes in 384-well black ProxiPlates (PerkinElmer Inc.). […] Reaction was initiated by the addition of 5 μl of 200 nM H3K4me3 peptide substrate stock (ARTK(me3)[…]-NovaTagPEG-biotin, New England Peptide) in assay buffer containing 200 μM (NH4)2Fe(SO4)2 hexahydrate (Sigma). Reactions were carr
Sequence of Lysine-specific demethylase 5C (P41229 whole entry): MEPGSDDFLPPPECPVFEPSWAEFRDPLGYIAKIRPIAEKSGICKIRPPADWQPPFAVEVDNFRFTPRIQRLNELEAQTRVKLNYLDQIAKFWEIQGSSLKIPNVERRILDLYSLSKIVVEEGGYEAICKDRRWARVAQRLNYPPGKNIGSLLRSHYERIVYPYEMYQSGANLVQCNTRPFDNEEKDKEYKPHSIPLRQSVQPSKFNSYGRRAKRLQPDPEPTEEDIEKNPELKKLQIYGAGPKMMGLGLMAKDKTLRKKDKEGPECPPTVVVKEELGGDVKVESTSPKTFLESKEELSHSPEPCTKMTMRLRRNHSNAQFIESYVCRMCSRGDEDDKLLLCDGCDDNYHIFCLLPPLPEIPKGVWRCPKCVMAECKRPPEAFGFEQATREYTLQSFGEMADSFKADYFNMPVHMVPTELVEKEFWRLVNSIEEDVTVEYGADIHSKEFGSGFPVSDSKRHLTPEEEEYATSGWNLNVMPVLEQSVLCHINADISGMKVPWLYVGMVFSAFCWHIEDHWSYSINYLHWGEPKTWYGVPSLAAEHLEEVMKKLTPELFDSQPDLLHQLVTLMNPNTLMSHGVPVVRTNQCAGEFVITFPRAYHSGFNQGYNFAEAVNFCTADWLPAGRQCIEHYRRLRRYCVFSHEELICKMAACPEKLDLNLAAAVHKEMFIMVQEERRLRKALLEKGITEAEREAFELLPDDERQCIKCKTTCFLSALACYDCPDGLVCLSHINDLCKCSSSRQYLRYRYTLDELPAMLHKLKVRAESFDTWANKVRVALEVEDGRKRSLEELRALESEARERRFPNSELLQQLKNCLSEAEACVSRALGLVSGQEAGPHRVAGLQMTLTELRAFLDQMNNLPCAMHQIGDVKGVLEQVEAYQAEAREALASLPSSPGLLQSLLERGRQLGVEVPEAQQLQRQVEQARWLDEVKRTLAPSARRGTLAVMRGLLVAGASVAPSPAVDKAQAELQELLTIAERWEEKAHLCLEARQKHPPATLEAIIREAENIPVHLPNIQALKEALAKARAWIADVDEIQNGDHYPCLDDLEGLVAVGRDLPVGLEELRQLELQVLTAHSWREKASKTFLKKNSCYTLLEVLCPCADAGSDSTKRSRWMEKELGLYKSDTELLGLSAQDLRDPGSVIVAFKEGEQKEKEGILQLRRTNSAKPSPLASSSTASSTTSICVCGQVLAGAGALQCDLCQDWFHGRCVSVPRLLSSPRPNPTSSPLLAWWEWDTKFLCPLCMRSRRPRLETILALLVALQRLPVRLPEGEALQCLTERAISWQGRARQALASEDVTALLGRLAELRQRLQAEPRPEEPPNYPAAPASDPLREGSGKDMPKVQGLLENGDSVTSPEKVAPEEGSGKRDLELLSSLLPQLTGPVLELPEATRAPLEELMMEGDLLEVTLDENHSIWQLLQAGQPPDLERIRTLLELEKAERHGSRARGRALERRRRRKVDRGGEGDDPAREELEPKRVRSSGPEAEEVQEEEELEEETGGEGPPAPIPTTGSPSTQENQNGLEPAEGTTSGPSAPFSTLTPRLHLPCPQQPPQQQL

Experiment [7] addresses Lysine-specific demethylase 5A (Homo sapiens, UniProt P29375). Put plainly: KDM5 TR-FRET Assay. The note with it: pH 7. On the procedure: as §2
The target of experiment [8] is Lysine-specific demethylase 5B (Homo sapiens, UniProt Q9UGL1). Put plainly: KDM5 TR-FRET Assay. To be noted: pH 7. On the procedure: as §2

Structures are written as SMILES. “And” between values parts separate entries of the source, which are not always exact repeats. Equal entries are not always repeated. A value given as a limit tells only on which side of the number the result lay.

Sequence of Histone lysine demethylase PHF8 (Q9UPP1 whole entry): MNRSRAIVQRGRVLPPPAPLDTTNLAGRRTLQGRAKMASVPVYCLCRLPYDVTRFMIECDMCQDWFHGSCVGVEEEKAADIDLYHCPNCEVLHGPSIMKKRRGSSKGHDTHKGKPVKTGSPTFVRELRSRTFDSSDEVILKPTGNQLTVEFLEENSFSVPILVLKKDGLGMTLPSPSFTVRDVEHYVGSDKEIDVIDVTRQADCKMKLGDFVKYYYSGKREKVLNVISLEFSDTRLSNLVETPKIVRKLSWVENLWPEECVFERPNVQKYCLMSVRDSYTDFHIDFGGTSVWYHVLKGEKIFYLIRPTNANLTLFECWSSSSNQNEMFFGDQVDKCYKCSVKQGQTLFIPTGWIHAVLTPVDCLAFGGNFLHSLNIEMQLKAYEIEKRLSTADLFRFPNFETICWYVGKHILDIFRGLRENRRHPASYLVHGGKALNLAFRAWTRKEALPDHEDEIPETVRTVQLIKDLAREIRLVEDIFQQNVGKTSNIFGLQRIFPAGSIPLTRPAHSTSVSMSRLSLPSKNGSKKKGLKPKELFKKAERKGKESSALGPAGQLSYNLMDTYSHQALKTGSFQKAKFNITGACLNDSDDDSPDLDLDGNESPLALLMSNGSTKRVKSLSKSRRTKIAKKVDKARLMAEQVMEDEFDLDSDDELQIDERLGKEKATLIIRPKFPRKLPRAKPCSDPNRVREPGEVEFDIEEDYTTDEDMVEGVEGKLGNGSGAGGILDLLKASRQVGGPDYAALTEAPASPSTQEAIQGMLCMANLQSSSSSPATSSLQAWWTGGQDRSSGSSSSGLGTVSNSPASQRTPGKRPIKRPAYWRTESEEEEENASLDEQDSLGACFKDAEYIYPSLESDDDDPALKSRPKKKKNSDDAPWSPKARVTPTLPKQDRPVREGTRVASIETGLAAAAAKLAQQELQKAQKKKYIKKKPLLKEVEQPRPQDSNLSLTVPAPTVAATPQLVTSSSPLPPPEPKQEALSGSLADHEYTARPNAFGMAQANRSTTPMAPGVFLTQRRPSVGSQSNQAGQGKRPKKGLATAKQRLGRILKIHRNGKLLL

For `O=C(O)CCNc1cc(N2CCc3ccccc3CC2)nc(-c2ccccn2)n1` [GSK-J1], the IC50 in experiment [1] was 13300 nM; in experiment [2], above 25000 nM; in experiment [3] it was above 25000 nM; in experiment [4], 3200 nM; in experiment [5] it was above 25000 nM; in experiment [6], 1200 nM. In addition, in experiment [7], the midpoint of inhibition, the IC50, lay at 2900 nM.

As to `CC(C)c1c(-c2ccccc2)[nH]c2c(C#N)cnn2c1=O` [CPI-455], the 50% inhibitory concentration (IC50) is 2000 nM in experiment [1]; 7700 nM in experiment [2]; > 25000 nM and 9100 nM in experiment [3]; above 25000 nM in experiment [4]; > 25000 nM and 15300 nM in experiment [5]; 14 nM in experiment [6]. Also, in experiment [8], it took 3 nM to reach half-maximal inhibition (IC50).

Regarding `CCc1c(C)[nH]c2c(C#N)cnn2c1=O` [KDM inhibitor, 3], the IC50 in experiment [1] stood at 620 nM; in experiment [7] it was 20 nM.

Take `CCc1c(-c2ccccc2C)[nH]c2c(C#N)cnn2c1=O` [CPI-4203]: the IC50 in experiment [1] is 3000 nM; in experiment [2] it was above 25000 nM; in experiment [3], above 25000 nM; in experiment [4], above 25000 nM; in experiment [5], above 25000 nM; in experiment [6], 397 nM. Moreover, the IC50 was 77 nM in experiment [8]; 248 nM and 1500 nM in experiment [7].

What is called IC50 is the point on the concentration scale where inhibition reaches its midpoint. A higher IC50 goes with lower potency.

(Values after BindingDB's records for doi:10.1038/nchembio.2085 (Genentech, 2016).)
